Among the data in patent publication US20210189342A1, “COMPOSITIONS AND METHODS FOR MODULATING MONOCYTE AND MACROPHAGE INFLAMMATORY PHENOTYPES AND IMMUNOTHERAPY USES THEREOF” (Verseau Therapeutics, Inc., priority 2018, published 2021) are IC50 values, retold here.

The test system of one data set is CD74. In words: siRNA dose response, CD74 mRNA knockdown, bDNA Assay. The class given is cell-based, human. To be noted: THP-1, 24 hr. As to the method:
(§1) Dose response curves for siRNAs were generated in vitro using a variety of cell lines according to Table 4.
(§2) Briefly, cells were seeded in 96-well plates and reverse transfected with siRNA, Lipofectamine® 2000 (0.5 uL/well; ThermoFisher), and, in some cases, a reporter plasmid (50 ng/well). The reporter plasmid (psiCHECK™-2, Promega) encoded both firefly luciferase and the gene of interest fused to renilla luciferase; silencing of the gene of interest results in proportional silencing of renilla luciferase but leaves firefly luciferase unaffected as an internal control.
(§3) After 24 hr incubation at 37° C., mRNA knockdown was measured using an endpoint assay. For targets without a reporter plasmid, a branched DNA (bDNA) assay was performed according to the manufacturer's instructions (QuantiGene® Singleplex Gene Expression Assay, ThermoFisher) to measure both the target gene and GAPDH (housekeeping gene) mRNA. Data are plotted as siRNA concentration (nM) vs. remaining mRNA (ratio of target gene to GAPDH, normalized to mock siRNA-transfected cells). For targets with a reporter plasmid, a Dual-Glo® Luciferase Assay was performed according to the manufacturer's instructions (Promega) to measure firefly and renilla luciferase expression. Data are plotted as siRNA concentration (nM) vs. remaining mRNA (ratio of renilla to firefly luminescence, normalized to mock siRNA-transfected cells).
(§4) For all dose response curves, a 4-parameter logistic model was applied to determine the IC50 of each siRNA sequence (Table 5 and FIG. 2). Data shown in Table 5 and FIG. 2 represent the mean of quadruplicates, +/−standard deviation.
For “XD-09223: siRNA targeting CD74 (sense 5'-ggAGcuGucGGGAaGAucAdTsdT-3'; antisense 5'-UGAUCUUCCCGAcAGCUCCdTsdT-3'; as printed in the source, key not given here)”, the IC50 was determined as 0.34 nM.

In a further data set the test system is CD84. The data set can be described thus: siRNA dose response, CD84 mRNA knockdown, Dual-Glo Luciferase Assay. The class given is cell-based, human. To be noted: Hepa1-6 + reporter plasmid, 24 hr. As to the method:
as §1, §2, §3, §4
In the case of “XD-09614: siRNA targeting CD84 (sense 5'-gaAcAcAGuuuAuuccGAAdTsdT-3'; antisense 5'-UUCGGAAuAAACUGUGUUCdTsdT-3'; as printed in the source, key not given here)”, the concentration for half-maximal inhibition (IC50) is less than 0.005 nM.

As for “XD-09615: siRNA targeting CD84 (sense 5'-ggAAcuGGGuAuAauccAAdTsdT-3'; antisense 5'-UUGGAUuAuACCcAGUUCCdTsdT-3'; as printed in the source, key not given here)”, the IC50 came out at 0.048 nM.

For the substance “XD-09616: siRNA targeting CD84 (sense 5'-gcAccAAcuAccAuuAGcAdTsdT-3'; antisense 5'-AGCuAAUGGuAGUUGGUGCdTsdT-3'; RNA with 2'-O-methyl and phosphorothioate modifications, case key not given here, as printed in the source, key not given here)”, the half-inhibitory concentration (IC50) turned out to be 0.067 nM. Take “XD-09617: siRNA targeting CD84 (sense 5'-cacuAcAGuuAAcgcuGAAdTsdT-3'; antisense 5'-UUcAGCGUuAACUGuAGUGdTsdT-3'; as printed in the source, key not given here)”: the half-inhibitory concentration (IC50) is 0.01 nM.

For the substance “XD-09618: siRNA targeting CD84 (sense 5'-gguAucAGGAAucaAAAuudTsdT-3'; antisense 5'-AAUUUUGAUUCCUGAuACCdTsdT-3'; as printed in the source, key not given here)”, the IC50 was less than 0.005 nM. Regarding “XD-09619: siRNA targeting CD84 (sense 5'-ccuuAcAGcAuAAcuAAuudTsdT-3'; antisense 5'-AAUuAGUuAUGCUGuAAGGdTsdT-3'; RNA with 2'-O-methyl and phosphorothioate modifications, case key not given here, as printed in the source, key not given here)”, the IC50 was less than 0.005 nM.

A further data set has as its system CD48. The data set can be described thus: siRNA dose response, CD48 mRNA knockdown, Dual-Glo Luciferase Assay. The conditions noted are these: Hepa1-6 + reporter plasmid, 24 hr. The class given is cell-based, human. On the procedure: as §1, §2, §3, §4
Consider “XD-09720: siRNA targeting CD48 (sense 5'-cucuGGAAuuGcuacuGcudTsdT-3'; antisense 5'-AGcAGuAGcAAUUCcAGAGdTsdT-3'; as printed in the source, key not given here)”, for which the concentration for half-maximal inhibition (IC50) came out at 0.012 nM. For “XD-09721: siRNA targeting CD48 (sense 5'-cuAAccuGGuuuuauAcuudTsdT-3'; antisense 5'-AAGuAuAAAACcAGGUuAGdTsdT-3'; RNA with 2'-O-methyl and phosphorothioate modifications, case key not given here, as printed in the source, key not given here)”, the IC50 turned out to be 0.009 nM. Take “XD-09722: siRNA targeting CD48 (sense 5'-cuuucGAccAGAAgAuuGudTsdT-3'; antisense 5'-AcAAUCUUCUGGUCGAAAGdTsdT-3'; RNA with 2'-O-methyl and phosphorothioate modifications, case key not given here, as printed in the source, key not given here)”: the concentration for half-maximal inhibition (IC50) came to 0.014 nM. As for “XD-09723: siRNA targeting CD48 (sense 5'-uccAGAAAAucuAaGuAcudTsdT-3'; antisense 5'-AGuACUuAGAUUUUCUGGAdTsdT-3'; as printed in the source, key not given here)”, the IC50 turned out to be 0.03 nM. On to “XD-09724: siRNA targeting CD48 (sense 5'-gaAuccAAAuuuAaAGGcAdTsdT-3'; antisense 5'-UGCCUUuAAAUUUGGAUUCdTsdT-3'; as printed in the source, key not given here)”, for which the IC50 stood at 0.055 nM.

Turning to “XD-09725: siRNA targeting CD48 (sense 5'-cccAAGccuGucAucAAAAdTsdT-3'; antisense 5'-UUUUGAUGAcAGGCUUGGGdTsdT-3'; RNA with 2'-O-methyl and phosphorothioate modifications, case key not given here, as printed in the source, key not given here)”, the IC50 is 0.022 nM. As to “XD-09726: siRNA targeting CD48 (sense 5'-acAAcuGuuAucugAAAcudTsdT-3'; antisense 5'-AGUUUcAGAuAAcAGUUGUdTsdT-3'; as printed in the source, key not given here)”, the 50% inhibitory concentration (IC50) turned out to be 0.017 nM. Still for that read-out and setting: the value for “XD-09727: siRNA targeting CD48 (sense 5'-ccuGGcGAGucuGuAAAcudTsdT-3'; antisense 5'-AGUUuAcAGACUCGCcAGGdTsdT-3'; as printed in the source, key not given here)” was 0.046 nM; that for “XD-09728: siRNA targeting CD48 (sense 5'-cuGGcGAGucuGuaAAcuAdTsdT-3'; antisense 5'-UagUUuAcAGACUCGCcAGdTsdT-3'; as printed in the source, key not given here)” was 0.032 nM; that for “XD-09729: siRNA targeting CD48 (sense 5'-uguuAuAcuuGccaAGucAdTsdT-3'; antisense 5'-UGACUUGGcAAGuAuAAcAdTsdT-3'; as printed in the source, key not given here)” was 0.015 nM.

A further data set has as its system SIGLEC7. The data set can be described thus: siRNA dose response, SIGLEC7 mRNA knockdown, Dual-Glo Luciferase Assay. The class given is cell-based, human. The conditions noted are these: Hepa1-6 + reporter plasmid, 24 hr. On the procedure: as §1, §2, §3, §4
In the case of “XD-10600: siRNA targeting SIGLEC7 (sense 5'-agAGuAAccGGAAgCAuusa-3'; antisense 5'-dTAAUCCUUCCGGUUACUCUusu-3'; RNA with 2'-O-methyl and phosphorothioate modifications, case key not given here, as printed in the source, key not given here)”, the 50% inhibitory concentration (IC50) was found to be 0.155 nM. On to “XD-10601: siRNA targeting SIGLEC7 (sense 5'-gaGuAACcGGAAGgAuuasa-3'; antisense 5'-dTUAAUCCUUCCGGUuACUCusu-3'; RNA with 2'-O-methyl and phosphorothioate modifications, case key not given here, as printed in the source, key not given here)”, for which the IC50 was determined as 0.127 nM. Regarding “XD-10602: siRNA targeting SIGLEC7 (sense 5'-guAAccGGAAGGAuuAcusa-3'; antisense 5'-dTAGuAAUCCUUCCGGUuACusu-3'; RNA with 2'-O-methyl and phosphorothioate modifications, case key not given here, as printed in the source, key not given here)”, the 50% inhibitory concentration (IC50) is 3.53 nM. Turning to “XD-10603: siRNA targeting SIGLEC7 (sense 5'-cgGAAGGAuuAcucGcugsa-3'; antisense 5'-dTCAGCGAGuAAUCCUUCCGusu-3'; RNA with 2'-O-methyl and phosphorothioate modifications, case key not given here, as printed in the source, key not given here)”, the concentration for half-maximal inhibition (IC50) came out at 0.029 nM. Still for that read-out and setting: the value for “XD-10604: siRNA targeting SIGLEC7 (sense 5'-ggAAGGAuuAcucgcuGasa-3'; antisense 5'-dTUcAGCGAGuAAUCCUUCCusu-3'; RNA with 2'-O-methyl and phosphorothioate modifications, case key not given here, as printed in the source, key not given here)” was 0.032 nM; that for “XD-10605: siRNA targeting SIGLEC7 (sense 5'-ggAuuACucGcuGacGAusa-3'; antisense 5'-dTAUCGUcAGCGAGUAAUCCusu-3'; RNA with 2'-O-methyl and phosphorothioate modifications, case key not given here, as printed in the source, key not given here)” was 0.022 nM; that for “XD-10606: siRNA targeting SIGLEC7 (sense 5'-ccGuGcAAGAGGGcAuGusa-3'; antisense 5'-dTAcAUGCCCUCUUGcACGGusu-3'; RNA with 2'-O-methyl and phosphorothioate modifications, case key not given here, as printed in the source, key not given here)” was 0.045 nM. As for “XD-10607: siRNA targeting SIGLEC7 (sense 5'-cgGGcAGGGAAuGauAuasa-3'; antisense 5'-dTUAuAUcAUUCCCUGCCCGusu-3'; as printed in the source, key not given here)”, the IC50 worked out at 0.039 nM. With “XD-10608: siRNA targeting SIGLEC7 (sense 5'-gcAGGGAAuGAuAuAAGcsa-3'; antisense 5'-dTGCUuAuAUcAUUCCCUGCusu-3'; as printed in the source, key not given here)”, the IC50 turned out to be 0.056 nM. Turning to “XD-10609: siRNA targeting SIGLEC7 (sense 5'-ggAAuGAuAuAAGcuGGasa-3'; antisense 5'-dTUCcAGCUuAuAUCAUUCCusu-3'; as printed in the source, key not given here)”, the half-maximal inhibitory concentration (IC50) stood at 0.059 nM.

One may read the IC50 as the midpoint of a concentration-inhibition curve.
